These results are taken from patent publication US8507538B2, “Selective heterocyclic sphingosine 1 phosphate receptor modulators” (Receptos, Inc., priority 2009, dated 2013).

The experiment addresses S1P1/EDG1 (Homo sapiens, UniProt P21453). Put plainly: S1P1 CRE-bla CHOK1 reporter assay (inhibition of Forskolin induced cAMP). In kind it is cell-based. The settings on record: agonist activity range, Table 2; read-out: S1P1 ACTIVITY
An excerpt: A mammalian expression plasmid containing S1P1/EDG1 cloned into pcDNA3.1 was purchased from Missouri S&T cDNA Resource Centre. The nucleotide and amino acid sequence of human S1P1/EDG1 are published in Hla and Maciag (J Biol Chem, 265(1990), 9308-9313). S1P1/pcDNA3.1 was transfected into the CRE-bla CHO K1 (Invitrogen) cell line, and stable single cell clones were selected using standard techniques. Expression of functional SIP1/EDG1 receptor was confirmed by cell surface FACS with a S1P1 antibody (R&D Systems, clone 218713) and S1P-mediated inhibition of Forskolin induced cAMP.
Cells were seeded into 384-well black wall/clear bottom plates at 10^4 cells/well/19.5 μl assay media (DMEM-phenol free, 0.5% charcoal/dextran stripped serum, 2 mM glutamine, 0.1 mM NEAA, 1 mM Na-Pyruvate, 25 mM Hepes) and incubated for 18 hrs at 37° C. in 5% CO2. Dose response curves (10-point) were generated in 10 mM Hepes, 0.1% Pluronic F127, in the presence of Forskolin. Cells were treated with 0.5 μl compound in the presence of 2 μM Forskolin for 4 hrs at 37° C. The FRET-based β-lactamase fluorescent substrate (LiveBLAzer™ FRET B/G Loading Kit CC4-AM; Invitrogen) was prepared according to manufacturer's directions, and incubated with cells for 2 hrs at room temperature. Plates were read at Ex:410/Em:458 and Ex:410/Em:522, and the response ratio determined. Data was analyzed by non-linear regression to determine the EC50 for inhibition of Forskolin induced cAMP.
Background: In a reporter assay the amount or activity of a reporter protein is the signal.

Counter-ions that a name gives are not always drawn.

Sequence of S1P1/EDG1 (P21453 whole entry): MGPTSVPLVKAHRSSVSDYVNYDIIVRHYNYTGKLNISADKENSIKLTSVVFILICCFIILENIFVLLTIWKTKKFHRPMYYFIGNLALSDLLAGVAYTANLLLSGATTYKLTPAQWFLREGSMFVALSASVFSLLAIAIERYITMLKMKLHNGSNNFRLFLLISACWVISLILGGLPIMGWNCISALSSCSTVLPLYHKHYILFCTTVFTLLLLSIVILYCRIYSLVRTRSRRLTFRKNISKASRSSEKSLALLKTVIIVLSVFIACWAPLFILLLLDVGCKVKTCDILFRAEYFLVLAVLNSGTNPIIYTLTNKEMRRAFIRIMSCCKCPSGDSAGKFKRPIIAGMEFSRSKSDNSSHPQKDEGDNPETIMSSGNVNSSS

On to `CC(C)Oc1ccc(-c2ncc(-c3cccc4c3CC[C@@H]4NS(=O)(=O)CC(=O)O)s2)cc1C#N` [Compound 159, (S)-2-(N-(4-(2-(3-cyano-4-isopropoxyphenyl)thiazol-5-yl)-2,3-dihydro-1H-inden-1-yl)sulfamoyl)acetic acid], for which the EC50 fell in the range of 0.05 to 0.5 nM. Under `CC(C)Oc1ccc(-c2ncc(-c3cccc4c3CC[C@@H]4NC(=O)N3CCOCC3)s2)cc1C#N` [Compound 187] stands 0.5 to 5 nM; under `CC(C)Oc1ccc(-c2nnc(-c3cccc4c3CC[C@@H]4NC(=O)N3CCC[C@H](O)C3)s2)cc1C#N` [Compound 61], 0.05 to 0.5 nM. Turning to `CC(C)Oc1ccc(-c2nnc(-c3cccc4c3CCC4NCC(=O)N(C)C)s2)cc1C#N` (stereo in doubt) [Compound 22, (R)-2-((4-(5-(3-cyano-4-isopropoxyphenyl)-1,3,4-thiadiazol-2-yl)-2,3-dihydro-1H-inden-1-yl)amino)-N,N-dimethylacetamide hydrochloride], the EC50 was 0.05 to 0.5 nM. Under `CC(C)Oc1ccc(-c2ncc(-c3cccc4c3CC[C@@H]4NC(=O)CN)s2)cc1C#N` [Compound 78] stands 0.5 to 5 nM; under `CC(C)Oc1ccc(-c2nnc(-c3cccc4c3CC[C@@H]4NC(=O)CN(C)C)s2)cc1C#N` [Compound 13], 0.5 to 5 nM; under `CC(C)Oc1ccc(-c2nnc(-c3cccc4c3CC[C@H]4NC(=O)CO)s2)cc1C#N` [Compound 8, (R)-N-(4-(5-(3-cyano-4-isopropoxyphenyl)-1,3,4-thiadiazol-2-yl)-2,3-dihydro-1H-inden-1-yl)-2-hydroxyacetamide], 0.05 to 0.5 nM. Under `CC(C)Oc1ccc(-c2ncc(-c3cccc4c3CC[C@@H]4NCc3ncc[nH]3)s2)cc1C#N` [Compound 110, (S)-5-(5-(1-(((1H-imidazol-2-yl)methyl)amino)-2,3-dihydro-1H-inden-4-yl)thiazol-2-yl)-2-isopropoxybenzonitrile] stands 0.5 to 5 nM; under `CC(C)Oc1ccc(-c2ncc(-c3cccc4c3CCC4NS(=O)(=O)CC(=O)O)s2)cc1C#N` (stereo in doubt) [Compound 158, (R)-2-(N-(4-(2-(3-cyano-4-isopropoxyphenyl)thiazol-5-yl)-2,3-dihydro-1H-inden-1-yl)sulfamoyl)acetic acid], less than 0.05 nM; under `CC(=O)N[C@H]1CCc2c(-c3cnc(-c4ccc(OC(C)C)c(C#N)c4)s3)cccc21` [Compound 87], 0.05 to 0.5 nM. Next, `CC(C)Oc1ccc(-c2ncc(-c3cccc4c3CC[C@@H]4NS(=O)(=O)CCN3CCC(CC(=O)O)CC3)s2)cc1C#N` [Compound 148]: 0.5 to 5 nM; `CC(C)Oc1ccc(-c2nnc(-c3cccc4c3CC[C@@H]4NC(=O)N(C)C)s2)cc1C#N` [Compound 67]: 0.5 to 5 nM; `CC(C)Oc1ccc(-c2ncc(-c3cccc4c3CC[C@@H]4NC(=O)N3CC[C@@H](N)C3)s2)cc1C#N` [Compound 181]: greater than 5 nM. Consider `CC(C)Oc1ccc(-c2nnc(-c3cccc4c3CC[C@@H]4NC(=O)CN)s2)cc1C#N` [Compound 9], for which the EC50 fell in the range of 0.05 to 0.5 nM.

As for `CC(C)Oc1ccc(-c2ncc(-c3cccc4c3CC[C@@H]4NC(=O)N3CCC(N(C)C)CC3)s2)cc1C#N` [Compound 192], the EC50 was greater than 5 nM. Next, `CC(C)Oc1ccc(-c2nnc(-c3cccc4c3CC[C@@H]4NCC(=O)N3CCOCC3)s2)cc1C#N` [Compound 25]: 0.05 to 0.5 nM. `CC(C)Oc1ccc(-c2ncc(-c3cccc4c3CC[C@@H]4NS(C)(=O)=O)s2)cc1C#N` [Compound 112, (S)-N-(4-(2-(3-cyano-4-isopropoxyphenyl)thiazol-5-yl)-2,3-dihydro-1H-inden-1-yl)methanesulfonamide]: the EC50 was in the range of 0.05 to 0.5 nM.

Turning to `CC(C)Oc1ccc(-c2ncc(-c3cccc4c3CC[C@@H]4NC(=O)N3CCNCC3)s2)cc1C#N` [Compound 188], the EC50 fell in the range of 0.5 to 5 nM. Under `CC(C)Oc1ccc(-c2nnc(-c3cccc4c3CC[C@H]4NS(=O)(=O)CCN3CC[C@@H](O)C3)s2)cc1C#N` (stereo in doubt) [Compound 38, N-((R)-4-(5-(3-cyano-4-isopropoxyphenyl)-1,3,4-thiadiazol-2-yl)-2,3-dihydro-1H -inden-1-yl)-2-((R)-3-hydroxypyrrolidin-1-yl)ethanesulfonamide] stands 0.5 to 5 nM.

For the molecule `COCCN[C@H]1CCc2c(-c3nnc(-c4ccc(OC(C)C)c(C#N)c4)s3)cccc21` [Compound 19], the EC50 lay in the range of 0.5 to 5 nM. Under `CC(C)Oc1ccc(-c2ncc(-c3cccc4c3CC[C@@H]4NC(=O)N3CC[C@@H](O)C3)s2)cc1C#N` [Compound 176] stands 0.5 to 5 nM; under `CC(C)Oc1ccc(-c2ncc(-c3cccc4c3CC[C@@H]4NC(=O)[C@H](N)CO)s2)cc1C#N` [Compound 79], 0.05 to 0.5 nM; under `CC(C)Oc1ccc(-c2ncc(-c3cccc4c3CC[C@@H]4NC(=O)N3CC[C@@H](N(C)C)C3)s2)cc1C#N` [Compound 185], greater than 5 nM. Consider `CC(C)Oc1ccc(-c2ncc(-c3cccc4c3CCC4N3CCN(C)CC3)s2)cc1C#N` (stereo not drawn) [Compound 216], for which the EC50 is 0.5 to 5 nM. Next, `COCCN(CCOC)[C@H]1CCc2c(-c3nnc(-c4ccc(OC(C)C)c(C#N)c4)s3)cccc21` [Compound 30]: 0.5 to 5 nM; `CC(C)Oc1ccc(-c2ncc(-c3cccc4c3CC[C@@H]4NC(=O)N3CCN(C)CC3)s2)cc1C#N` [Compound 190]: 0.5 to 5 nM; `CC(C)Oc1ccc(-c2nnc(-c3cccc4c3CC[C@@H]4NCC(=O)N3CCCC3)s2)cc1C#N` [Compound 39]: 0.05 to 0.5 nM. Under `CC(C)Oc1ccc(-c2ccc(-c3cccc4c3CCC4O)s2)cc1C#N` (stereo not drawn) [Compound 223, 5-(5-(1-hydroxy-2,3-dihydro-1H-inden-4-yl)thiophen-2-yl)-2-isopropoxybenzonitrile] stands 0.5 to 5 nM. In the case of `CC(C)Oc1ccc(-c2ncc(-c3cccc4c3CC[C@@H]4NS(=O)(=O)CCN(C)C)s2)cc1C#N` [Compound 123], the EC50 lay within 0.5 to 5 nM. Next, `COCC(=O)N[C@H]1CCc2c(-c3cnc(-c4ccc(OC(C)C)c(C#N)c4)s3)cccc21` [Compound 75]: 0.05 to 0.5 nM; `CC(C)Oc1ccc(-c2ncc(-c3cccc4c3CC[C@@H]4NS(=O)(=O)CCN3CCC(CO)CC3)s2)cc1C#N` [Compound 149]: 0.5 to 5 nM; `CC(C)Oc1ccc(-c2ncc(-c3cccc4c3CC[C@@H]4NS(=O)(=O)CCN3CCCC(O)C3)s2)cc1C#N` (stereo in doubt) [Compound 141, N-((S)-4-(2-(3-cyano-4-isopropoxyphenyl)thiazol-5-yl)-2,3-dihydro-1H-inden-1-yl)-2-((R)-3-hydroxypiperidin-1-yl)ethanesulfonamide]: 0.5 to 5 nM. Next, `COC(=O)CC1CCN(C(=O)N[C@H]2CCc3c(-c4cnc(-c5ccc(OC(C)C)c(C#N)c5)s4)cccc32)CC1` [Compound 204]: 0.5 to 5 nM. As for `CC(C)Oc1ccc(-c2ncc(-c3cccc4c3CC[C@@H]4NC(=O)CO)s2)cc1C#N` [Compound 73, (S)-N-(4-(2-(3-cyano-4-isopropoxyphenyl)thiazol-5-yl)-2,3-dihydro-1H-inden-1-yl)-2-hydroxyacetamide], the EC50 lay within 0.05 to 0.5 nM. As to `COCCN[C@H]1CCc2c(-c3cnc(-c4ccc(OC(C)C)c(C#N)c4)s3)cccc21` [Compound 93], the EC50 lay in the range of 0.5 to 5 nM. Under `CC(C)Oc1ccc(-c2nnc(-c3cccc4c3CCC4NCCO)s2)cc1C#N` (stereo in doubt) [Compound 17, (R)-5-(5-(1-((2-hydroxyethyl)amino)-2,3-dihydro-1H-inden-4-yl)-1,3,4-thiadiazol-2-yl)-2-isopropoxybenzonitrile] stands 0.05 to 0.5 nM.

As for `CC(C)Oc1ccc(-c2nnc(-c3cccc4c3CC[C@@H]4NCC(=O)N3CCOCC3)s2)cc1C#N` [Compound 24], the EC50 fell in the range of 0.5 to 5 nM.

Regarding `COC(=O)CS(=O)(=O)NC1CCc2c(-c3cnc(-c4ccc(OC(C)C)c(C#N)c4)s3)cccc21` (stereo in doubt) [Compound 154, (R)-methyl 2-(N-(4-(2-(3-cyano-4-isopropoxyphenyl)thiazol-5-yl)-2,3-dihydro-1H-inden-1-yl)sulfamoyl)acetate], the EC50 is 0.05 to 0.5 nM. Next, `CC(C)Oc1ccc(-c2ncc(-c3cccc4c3CC[C@@H]4NCC(=O)N3CCNCC3)s2)cc1C#N` [Compound 107]: 0.5 to 5 nM; `CC(C)Oc1ccc(-c2ncc(-c3cccc4c3CC[C@@H]4NCC(=O)N3CC[C@H](O)C3)s2)cc1C#N` [Compound 104, 5-(5-((S)-1-((2-((S)-3-hydroxypyrrolidin-1-yl)-2-oxoethyl)amino)-2,3-dihydro-1H-inden-4-yl)thiazol-2-yl)-2-isopropoxybenzonitrile]: 0.5 to 5 nM; `CC(C)Oc1ccc(-c2ncc(-c3cccc4c3CCC4NCC(=O)N3CC[C@H](O)C3)s2)cc1C#N` (stereo in doubt) [Compound 102, 5-(5-((R)-1-((2-((S)-3-hydroxypyrrolidin-1-yl)-2-oxoethyl)amino)-2,3-dihydro-1H-inden-4-yl)thiazol-2-yl)-2-isopropoxybenzonitrile hydrochloride]: 0.05 to 0.5 nM. Next, `CC(C)Oc1ccc(-c2ncc(-c3cccc4c3CC[C@@H]4NC(=O)N3CC[C@@H](O)C3)s2)cc1C#N` [Compound 174]: 0.05 to 0.5 nM.
